Holding throughout (assay type): cell-based
One experiment addresses T1, CDK9 (Homo sapiens, UniProt P50750).
T1 construct: Whole cell extracts were prepared using RIPA buffer; endogenous in cells; host or cells: MV-4-11
In words: CDK9 degradation assay (Western blot, MV-4-11 cells). Conditions: 6-8 h; for Dmax at 0.1 µM: MV4-11, 0.1 μM; for Dmax at 1 µM: MV4-11, 1 μM. The procedure, abridged: (§1)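 Western blot, infrared fluorescence read-out: % degradation versus DMSO after 6-8 h compound treatment of ~10^6 cells/mL. RIPA whole-cell lysates on 4-12% gels, nitrocellulose transfer. Binned A <25%, B 25–<50%, C 50–<75%, D ≥75%.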
(A western blot detects proteins with antibodies after separation by electrophoresis.)

For another experiment, the target named is T2, IKAROS (Homo sapiens, UniProt Q13422+Q96SW2).
T2 construct: endogenous in cells; host or cells: MV-4-11
T2 sequence (Q13422 whole entry): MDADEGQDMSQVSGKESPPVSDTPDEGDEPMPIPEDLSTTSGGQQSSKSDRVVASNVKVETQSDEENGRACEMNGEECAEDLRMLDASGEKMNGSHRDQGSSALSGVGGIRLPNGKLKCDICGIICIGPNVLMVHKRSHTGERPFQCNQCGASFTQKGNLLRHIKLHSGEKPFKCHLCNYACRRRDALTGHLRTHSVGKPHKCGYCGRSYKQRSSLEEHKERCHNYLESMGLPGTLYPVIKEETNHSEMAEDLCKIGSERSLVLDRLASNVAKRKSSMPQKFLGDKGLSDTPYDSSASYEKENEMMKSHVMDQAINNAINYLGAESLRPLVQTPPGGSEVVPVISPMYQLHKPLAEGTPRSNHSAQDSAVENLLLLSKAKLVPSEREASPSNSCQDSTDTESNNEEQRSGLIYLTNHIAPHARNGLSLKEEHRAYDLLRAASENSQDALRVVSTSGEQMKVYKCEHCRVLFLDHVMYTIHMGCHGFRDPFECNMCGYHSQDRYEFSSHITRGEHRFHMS
T2 sequence (Q96SW2 whole entry): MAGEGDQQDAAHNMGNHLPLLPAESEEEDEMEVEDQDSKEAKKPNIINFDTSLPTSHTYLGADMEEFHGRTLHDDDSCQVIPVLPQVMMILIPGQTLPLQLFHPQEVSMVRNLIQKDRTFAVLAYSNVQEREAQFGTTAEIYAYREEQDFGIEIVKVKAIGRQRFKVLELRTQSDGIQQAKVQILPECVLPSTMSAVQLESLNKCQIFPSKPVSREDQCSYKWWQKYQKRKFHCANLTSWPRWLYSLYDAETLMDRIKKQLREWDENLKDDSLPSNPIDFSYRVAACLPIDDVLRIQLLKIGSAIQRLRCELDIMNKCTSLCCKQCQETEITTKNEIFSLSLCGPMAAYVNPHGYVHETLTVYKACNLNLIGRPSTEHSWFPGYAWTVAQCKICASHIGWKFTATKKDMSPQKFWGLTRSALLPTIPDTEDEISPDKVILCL
T2 sequence (Q16531 whole entry partner): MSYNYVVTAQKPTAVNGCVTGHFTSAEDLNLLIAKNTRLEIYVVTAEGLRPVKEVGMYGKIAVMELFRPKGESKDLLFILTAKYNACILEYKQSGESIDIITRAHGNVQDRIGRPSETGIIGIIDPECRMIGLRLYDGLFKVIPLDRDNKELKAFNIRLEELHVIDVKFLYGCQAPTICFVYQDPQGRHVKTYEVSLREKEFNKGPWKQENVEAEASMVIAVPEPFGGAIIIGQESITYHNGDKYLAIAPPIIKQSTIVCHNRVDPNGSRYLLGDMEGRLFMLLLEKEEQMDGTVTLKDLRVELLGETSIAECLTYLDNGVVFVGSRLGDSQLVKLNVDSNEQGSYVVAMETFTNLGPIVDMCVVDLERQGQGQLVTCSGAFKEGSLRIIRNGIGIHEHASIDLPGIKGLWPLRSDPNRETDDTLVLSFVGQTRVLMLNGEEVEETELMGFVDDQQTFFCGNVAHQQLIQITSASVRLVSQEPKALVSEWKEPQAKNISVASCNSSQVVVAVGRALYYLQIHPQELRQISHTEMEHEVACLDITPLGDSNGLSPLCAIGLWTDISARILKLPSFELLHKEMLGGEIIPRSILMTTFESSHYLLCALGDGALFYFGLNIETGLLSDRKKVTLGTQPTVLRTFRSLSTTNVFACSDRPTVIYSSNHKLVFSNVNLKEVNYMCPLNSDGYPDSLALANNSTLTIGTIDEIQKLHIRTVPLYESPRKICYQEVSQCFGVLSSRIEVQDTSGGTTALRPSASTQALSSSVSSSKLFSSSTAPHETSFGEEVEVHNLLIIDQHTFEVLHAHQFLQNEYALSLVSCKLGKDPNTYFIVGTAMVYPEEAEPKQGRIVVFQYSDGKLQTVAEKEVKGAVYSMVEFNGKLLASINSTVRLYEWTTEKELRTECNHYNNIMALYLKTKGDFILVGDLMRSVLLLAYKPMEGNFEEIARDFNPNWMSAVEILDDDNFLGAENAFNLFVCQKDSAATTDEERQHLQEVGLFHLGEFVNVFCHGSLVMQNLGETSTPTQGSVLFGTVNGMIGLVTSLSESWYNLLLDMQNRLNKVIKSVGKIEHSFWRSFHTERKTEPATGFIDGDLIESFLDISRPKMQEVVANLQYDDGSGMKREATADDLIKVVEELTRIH
In words: IKAROS degradation assay (Western blot, MV-4-11 cells). Conditions: MV4-11, 6-8 h. The procedure, abridged: as §1

In a further experiment the target is T3, GSPT1 (Homo sapiens, UniProt P15170+Q96SW2).
T3 construct: Whole cell extracts were prepared using RIPA buffer; endogenous in cells; host or cells: MV-4-11
T3 sequence (P15170 whole entry): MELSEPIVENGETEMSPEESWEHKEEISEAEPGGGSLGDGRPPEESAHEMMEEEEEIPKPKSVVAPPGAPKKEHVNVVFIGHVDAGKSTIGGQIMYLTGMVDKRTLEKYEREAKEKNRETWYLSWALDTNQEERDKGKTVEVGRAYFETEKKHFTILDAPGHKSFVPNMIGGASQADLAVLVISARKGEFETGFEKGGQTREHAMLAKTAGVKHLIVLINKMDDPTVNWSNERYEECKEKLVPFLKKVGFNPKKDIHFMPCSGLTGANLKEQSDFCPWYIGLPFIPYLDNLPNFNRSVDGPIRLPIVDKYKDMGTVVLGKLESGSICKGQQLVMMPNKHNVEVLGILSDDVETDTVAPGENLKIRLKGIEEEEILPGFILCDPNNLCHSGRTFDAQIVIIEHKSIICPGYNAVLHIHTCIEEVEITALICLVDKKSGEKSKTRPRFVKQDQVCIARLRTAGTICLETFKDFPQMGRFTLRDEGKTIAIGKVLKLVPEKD
T3 sequence (Q96SW2 whole entry): as the sequence (Q96SW2 whole entry) above
T3 sequence (Q16531 whole entry partner): as the sequence (Q16531 whole entry partner) above
In words: GSPT1 degradation assay (Western blot, MV-4-11 cells). Conditions: MV4-11, 6-8 h. The procedure, abridged: as §1

The target in a further experiment is T4, CDK16 (Homo sapiens, UniProt Q00536).
T4 construct: Whole cell extracts were prepared using RIPA buffer; endogenous in cells; host or cells: MV-4-11
T4 sequence (Q00536 whole entry): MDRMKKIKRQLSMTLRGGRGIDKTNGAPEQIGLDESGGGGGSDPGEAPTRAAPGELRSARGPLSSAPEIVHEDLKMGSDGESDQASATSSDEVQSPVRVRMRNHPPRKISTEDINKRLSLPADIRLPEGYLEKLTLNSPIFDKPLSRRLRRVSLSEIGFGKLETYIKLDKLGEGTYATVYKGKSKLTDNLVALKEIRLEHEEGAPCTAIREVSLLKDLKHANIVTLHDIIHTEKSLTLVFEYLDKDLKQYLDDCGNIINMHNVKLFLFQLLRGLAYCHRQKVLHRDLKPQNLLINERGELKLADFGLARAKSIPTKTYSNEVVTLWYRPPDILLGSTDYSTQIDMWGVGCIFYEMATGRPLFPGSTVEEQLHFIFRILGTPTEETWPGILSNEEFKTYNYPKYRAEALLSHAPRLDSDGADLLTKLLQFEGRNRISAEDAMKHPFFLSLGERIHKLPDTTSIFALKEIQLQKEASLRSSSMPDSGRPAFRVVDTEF
The experiment in a line: CDK16 degradation assay (Western blot, MV-4-11 cells). Conditions: 6-8 h; for Dmax at 0.1 µM: MV4-11, 0.1 μM; for Dmax at 1 µM: MV4-11, 1 μM. The procedure, abridged: as §1

For the next experiment, the target named is T5, CK1α (Homo sapiens, UniProt P48729+Q96SW2).
T5 construct: Whole cell extracts were prepared using RIPA buffer; endogenous in cells; host or cells: MV-4-11
T5 sequence (P48729 whole entry): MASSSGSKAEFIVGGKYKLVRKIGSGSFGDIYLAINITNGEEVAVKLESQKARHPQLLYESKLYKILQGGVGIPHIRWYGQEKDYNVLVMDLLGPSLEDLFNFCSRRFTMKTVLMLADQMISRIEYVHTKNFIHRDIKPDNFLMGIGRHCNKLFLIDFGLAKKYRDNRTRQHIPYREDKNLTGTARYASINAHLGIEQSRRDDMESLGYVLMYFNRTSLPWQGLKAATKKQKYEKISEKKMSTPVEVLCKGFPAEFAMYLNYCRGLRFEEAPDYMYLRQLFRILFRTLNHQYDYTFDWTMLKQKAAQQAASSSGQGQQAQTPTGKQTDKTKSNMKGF
T5 sequence (Q96SW2 whole entry): as the sequence (Q96SW2 whole entry) above
T5 sequence (Q16531 whole entry partner): as the sequence (Q16531 whole entry partner) above
In words: CK1α degradation assay (Western blot, MV-4-11 cells). Conditions: MV4-11, 6-8 h. The method, then: MV-4-11 cells were grown in RPMI 1640 media supplemented with 10% fetal bovine serum, streptomycin and penicillin.
Cells were cultured at approximately 10^6 cells per mL and incubated in DMSO or the indicated compound for 6-8 h. Whole cell extracts were prepared using RIPA buffer according to manufacturer's protocol (Pierce). Briefly, 3×10^6 cells were washed once in PBS, the cell pellets were resuspended in RIPA buffer and allowed to incubate for 15 minutes on ice. Cells debris was removed by centrifugation and the cleared whole cell lysates were transferred to new tubes for further analysis.
For Western blot analysis, whole cell protein extracts were separated on 4-12% SDS-polyacrylamide gels, transferred to nitrocellulose and probed with the indicated primary antibodies. Membranes were subsequently washed and probed with the appropriate IRDye secondary antibodies (LI-COR). The signal was detected using the Odyssey Imaging System (LI-COR).
The following antibodies were used in these studies: Anti-eRF3/GSPT1: Abcam, ab126090 (Cambridge, Mass.); Anti-Ikaros: Abcam, ab191394 (Cambridge, Mass.); Anti-CK1α: Abcam, ab108296 (Cambridge, Mass.); Anti-CDK9: Santa Cruz Biotechnology, sc13130 (Dallas, Tex.); Anti-CDK16: Millipore Sigma, HPA001366 (St. Louis, Mo.); 3-actin (8H10comD10) mouse monoclonal antibody: Cell Signaling Technology, #3700 (Danvers, Mass.); IRDye 680RD Goat anti-rabbit antibody: LI-COR, 926-68071 (Lincoln, Nebr.); IRDye 800CW Goat anti-mouse antibody: LI-COR, 926-32210 (Lincoln, Nebr.).
CDK9 activities are shown in Table 4 at two different concentrations. CDK16 activities are shown in Table 5 at two different concentrations. In each of Tables 1-5, the % degradation values are reported as “A”, “B”, “C”, or “D”. “A” represents a % degradation value of less than 25% (value <25%). “B” represents a % degradation value of equal to or more than 25% and less than 50% (25%≤value<50%). “C” represents a % degradation value of equal to or more than 50% and less than 75% (50%≤value<75%). “D” represents a % degradation value of equal to or more than 75% (value ≥75%).

Another experiment deals with MOLM-13 cells. The experiment in a line: MOLM-13 cell viability assay (CellTiter-Glo). Conditions: Homo sapiens, MOLM-13, 72 h, 3 days, read-out: MOLM-13 Cell Viability % DMSO at 1 μM. The procedure, abridged:
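MOLM-13 cells at 2500 cells/well were exposed to compound for 3 days at 37 °C. Viability was read by CellTiter-Glo luminescence and expressed as % of DMSO control, binned A (<50%), B (50–<70%), C (70–<90%) or D (≥90%).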
For orientation: ATP-based viability assays read luminescence as a measure of living cells.

Another experiment has as its system IL-6. The experiment in a line: IL-6 inhibition assay, LPS-induced PBMCs / CD14+ monocytes (Meso Scale). Conditions: 1 h pretreatment, 100 ng/mL LPS 18-24 h. A digest of the protocol:
(§2)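 Thawed human PBMCs or CD14+ mobilized peripheral blood monocytes, 200,000 cells/well in RPMI-1640/10% FBS, pretreated with compound or DMSO 1 h, then stimulated with 100 ng/mL LPS for 18-24 h. Supernatant cytokine measured by Meso Scale; % inhibition binned A–D (<50%, 50–70%, 70–90%, ≥90%), fold-change binned A–D (≤0.1, ≤0.5, ≤1, >1).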

The next experiment relates to TNF-α. In words: TNF-α inhibition assay, LPS-induced PBMCs / CD14+ monocytes (Meso Scale). Conditions: 1 h pretreatment, 100 ng/mL LPS 18-24 h. A digest of the protocol:
as §2

The next experiment relates to IL-2. The experiment in a line: IL-2 fold-change assay, anti-CD3 stimulated PBMCs (Mesoscale). Conditions: PBMC, PBMCs on anti-human CD3, 24 h, fold difference from the DMSO control. The method, then: For the IL-2 analysis, 96 well plates were precoated with 1 μg/mL anti-human CD3 antibody (OK3, eBioscience Inc., San Diego, Calif.). After washing with PBS, the indicated compound was added (50 μL/well) followed by PBMCs diluted at 3-4 million cells/mL (150 μL/well). Plates were incubated for 24 h and the supernatants collected for Mesoscale IL-2 analysis. IL-2 activity is measured as fold difference from the DMSO control.
In Table 6, the % inhibition values are reported as “A”, “B”, “C”, or “D”. “A” represents a % inhibition value of less than 50% (value <50%). “B” represents a % inhibition value of equal to or more than 50% and less than 70% (50%≤value<70%). “C” represents a % inhibition value of equal to or more than 70% and less than 90% (70%≤value<90%). “D” represents a % inhibition value of equal or more than 90% (value ≥90%). In Table 7, the fold-change values are reported as “A”, “B”, “C”, or “D”. “A” represents a fold-change value of equal to or less than 0.1 (value ≤0.1). “B” represents a fold-change value of more than 0.1 and equal to or less than 0.5 (0.1<value≤0.5). “C” represents a fold-change value of more than 0.5 and equal to or less than 1 (0.5<value≤1). “D” represents a fold-change value of more than 1 (value >1).

The test system of another experiment is IL-1β. The experiment in a line: IL-1β inhibition assay, LPS-induced PBMCs / CD14+ monocytes (Meso Scale). Conditions: 1 h pretreatment, 100 ng/mL LPS 18-24 h. The procedure, abridged:
as §2

T1 sequence (P50750 whole entry): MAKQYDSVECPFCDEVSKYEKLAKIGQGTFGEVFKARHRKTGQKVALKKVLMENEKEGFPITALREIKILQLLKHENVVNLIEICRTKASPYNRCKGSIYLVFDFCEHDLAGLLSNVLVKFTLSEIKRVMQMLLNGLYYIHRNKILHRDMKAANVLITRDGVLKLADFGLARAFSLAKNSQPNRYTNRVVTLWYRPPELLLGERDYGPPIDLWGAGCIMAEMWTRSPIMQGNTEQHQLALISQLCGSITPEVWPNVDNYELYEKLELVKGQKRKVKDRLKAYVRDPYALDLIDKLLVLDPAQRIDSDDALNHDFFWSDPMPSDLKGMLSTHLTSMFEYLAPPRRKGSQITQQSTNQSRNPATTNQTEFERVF

The Dmax is the largest share of the target that was removed. High values mean a fuller loss of target, low ones a partial loss of target. The term viability denotes a read-out of living cells in per cent, often relative to untreated cells. `CC(C)(C)c1cnc(CSc2cnc(NC(=O)C3CCN(CC(=O)NCCCCCNCC(=O)NCc4scc5c4CN(C4CCC(=O)NC4=O)C5=O)CC3)s2)o1` (centres unmarked) [Compound 33, N-(5-(((5-(tert-butyl)oxazol-2-yl)methyl)thio)thiazol-2-yl)-1-(2-((5-((2-(((5-(2,6-dioxopiperidin-3-yl)-4-oxo-5,6-dihydro-4H-thieno[3,4-c]pyrrol-1-yl)methyl)amino)-2-oxoethyl)amino)pentyl)amino)-2-oxoethyl)piperidine-4-carboxamide]: the Dmax at 0.1 µM is no less than 75% on CDK9 and less than 25% on CDK16. In addition, the Dmax at 1 µM on CDK9 is no less than 75%; at IKAROS it was 50 to 75%; on GSPT1 it was no less than 75%; at CDK16, 50 to 75%; at CK1α it was no less than 75%. Besides, the viability at 1 µM with MOLM-13 cells was greater than 90%.
As to `Cn1ncc(-c2nc(N[C@H]3CC[C@H](NCC(=O)NCCCCNCC(=O)NCc4scc5c4CN(C4CCC(=O)NC4=O)C5=O)CC3)ncc2F)c1CC1CC1` (some centres unmarked) [Compound 39, 2-(((1r,4r)-4-((4-(5-(cyclopropylmethyl)-1-methyl-1H-pyrazol-4-yl)-5-fluoropyrimidin-2-yl)amino)cyclohexyl)amino)-N-(4-((2-(((5-(2,6-dioxopiperidin-3-yl)-4-oxo-5,6-dihydro-4H-thieno[3,4-c]pyrrol-1-yl)methyl)amino)-2-oxoethyl)amino)butyl)acetamide], the figures for the Dmax at 0.1 µM at CDK9 and on CDK16 were 25 to 50% and less than 25%, respectively. Moreover, the Dmax at 1 µM at CDK9 was no less than 75%; on IKAROS, 25 to 50%; at GSPT1 it was 50 to 75%; at CDK16 it was no less than 75%; on CK1α it was 25 to 50%. In addition, the viability at 1 µM with MOLM-13 cells is greater than 90%.
The inhibition is the change of the read-out against control, counted positive when it falls. For orientation: fold induction means the signal under treatment as a multiple of the control signal. As to `Cn1ncc(-c2cc(N[C@H]3CC[C@H](NCCCCCCCCNC(=O)NCc4cc5c(s4)C(=O)N(C4CCC(=O)NC4=O)C5)CC3)ncc2F)c1CC1CC1` (some centres unmarked) [Compound 59, 1-(8-(((1r,4r)-4-((4-(5-(cyclopropylmethyl)-1-methyl-1H-pyrazol-4-yl)-5-fluoropyridin-2-yl)amino)cyclohexyl)amino)octyl)-3-((5-(2,6-dioxopiperidin-3-yl)-6-oxo-5,6-dihydro-4H-thieno[2,3-c]pyrrol-2-yl)methyl)urea], the inhibition at 1 µM is 70 to 90% in the experiment with IL-6, less than 50% in the experiment with TNF-α and 70 to 90% in the experiment with IL-1β. For the same compound, the fold induction at 1 µM in the experiment with IL-2 was in the range of 0.5 to 1. For the same compound, in the experiment with MOLM-13 cells, the viability at 1 µM was greater than 90%.
Take `Cn1ncc(-c2nc(N[C@H]3CC[C@H](NCC(=O)NCCCCCNCC(=O)NCc4cc5c(s4)C(=O)N(C4CCC(=O)NC4=O)C5)CC3)ncc2Cl)c1CC1CC1` (some centres unmarked) [Compound 30, 2-(((1r,4r)-4-((5-chloro-4-(5-(cyclopropylmethyl)-1-methyl-1H-pyrazol-4-yl)pyrimidin-2-yl)amino)cyclohexyl)amino)-N-(5-((2-(((5-(2,6-dioxopiperidin-3-yl)-6-oxo-5,6-dihydro-4H-thieno[2,3-c]pyrrol-2-yl)methyl)amino)-2-oxoethyl)amino)pentyl)acetamide]: the Dmax at 0.1 µM at CDK9 fell in the range of 50 to 75%; at CDK16, 25 to 50%. Also, the Dmax at 1 µM on CDK9 was 50 to 75%; at IKAROS, 50 to 75%; on GSPT1, 50 to 75%; at CDK16 it was 50 to 75%; on CK1α it was less than 25%. The viability at 1 µM in the experiment with MOLM-13 cells was greater than 90%.
For the compound `Cn1ncc(-c2nc(N[C@H]3CC[C@H](NCC(=O)NCCOCCOCCOCCNC(=O)NCc4cc5c(s4)C(=O)N(C4CCC(=O)NC4=O)C5)CC3)ncc2Cl)c1CC1CC1` (some centres unmarked) [Compound 46, 2-(((1r,4r)-4-((5-chloro-4-(5-(cyclopropylmethyl)-1-methyl-1H-pyrazol-4-yl)pyrimidin-2-yl)amino)cyclohexyl)amino)-N-(1-(5-(2,6-dioxopiperidin-3-yl)-6-oxo-5,6-dihydro-4H-thieno[2,3-c]pyrrol-2-yl)-3-oxo-7,10,13-trioxa-2,4-diazapentadecan-15-yl)acetamide], the inhibition at 1 µM in the experiment on IL-6 fell in the range of 70 to 90%; in the experiment with TNF-α, 50 to 70%; in the experiment with IL-1β, 70 to 90%. For the same compound, in the experiment on IL-2, the fold induction at 1 µM fell in the range of 0.1 to 0.5. In addition, the viability at 1 µM in the experiment on MOLM-13 cells is greater than 90%.
For `Cn1ncc(-c2nc(N[C@H]3CC[C@H](NCC(=O)NCCCCNCC(=O)NCc4cc5c(s4)C(=O)N(C4CCC(=O)NC4=O)C5)CC3)ncc2Cl)c1CC1CC1` (some centres unmarked) [Compound 35, 2-(((1r,4r)-4-((5-chloro-4-(5-(cyclopropylmethyl)-1-methyl-1H-pyrazol-4-yl)pyrimidin-2-yl)amino)cyclohexyl)amino)-N-(4-((2-(((5-(2,6-dioxopiperidin-3-yl)-6-oxo-5,6-dihydro-4H-thieno[2,3-c]pyrrol-2-yl)methyl)amino)-2-oxoethyl)amino)butyl)acetamide], the values for the Dmax at 0.1 µM on CDK9 and at CDK16 were 25 to 50% and less than 25%, respectively. Also, the Dmax at 1 µM is 25 to 50% at CDK9; 50 to 75% at IKAROS; no less than 75% at GSPT1; 50 to 75% at CDK16; 25 to 50% on CK1α. In the experiment with MOLM-13 cells, the viability at 1 µM was greater than 90%.
Consider `Cn1ncc(-c2nc(N[C@H]3CC[C@H](NCC(=O)NCCNCC(=O)NCc4cc5c(s4)C(=O)N(C4CCC(=O)NC4=O)C5)CC3)ncc2Cl)c1CC1CC1` (some centres unmarked) [Compound 40, 2-(((1r,4r)-4-((5-chloro-4-(5-(cyclopropylmethyl)-1-methyl-1H-pyrazol-4-yl)pyrimidin-2-yl)amino)cyclohexyl)amino)-N-(2-((2-(((5-(2,6-dioxopiperidin-3-yl)-6-oxo-5,6-dihydro-4H-thieno[2,3-c]pyrrol-2-yl)methyl)amino)-2-oxoethyl)amino)ethyl)acetamide], for which the Dmax at 0.1 µM on CDK9 was in the range of 50 to 75%; on CDK16, 25 to 50%. Moreover, the Dmax at 1 µM at CDK9 is no less than 75%; at IKAROS, 50 to 75%; on GSPT1 it was no less than 75%; at CDK16, 50 to 75%; on CK1α, 25 to 50%. In the experiment on MOLM-13 cells, the viability at 1 µM was in the range of 70 to 90%.

Values taken from patent publication US20220153751A1, “BIFUNCTIONAL COMPOUNDS” (BioTheryX, Inc., priority 2018, published 2022).
